How the values were obtained:
[1] = test system: Arabidopsis ovules; assay: Pistil culture experiments with 5-azaC, BR (epiBL), DTBA, H2O2 and sugars, meiosis to apomeiosis; type: cell-based, Arabidopsis thaliana
From the text: (§1) To address redox instability, pistils were exposed to the antioxidant DTBA, an antioxidant that protects thiol groups in proteins from oxidization. To address bioenergetic stress, pistils were exposed to sugars. Glucose signaling is one of the most ancient and central signaling pathways in animals and plants and is involved in gene expression, primary and secondary metabolism, and regulation of growth and development (98). In Arabidopsis, rates of glycolysis and mitochondrial bioenergetics are sensed by TOR, which then control root meristem activation (18). If sufficient sugar is supplied, TOR should be activated. Active TOR protects BZR1 and other important BR-regulated enzymes from degradation, and this leads to plant growth (25). Factorial experiments were designed to test the effects of sucrose, glucose, epiBL, DTBA and 5-azaC on apomixis induction. These were designed for each of three sexual species, B. stricta, arabidopsis and cowpea. The experiments were performed and ratios of apomeiosis to meiosis were documented.
Two factorial experiments were conducted using immature arabidopsis pistils. In the first experiment, no 5-azaC, 5-azaC in the pretreatment only, or 5-azaC in both the pretreatment and the tissue culture medium were tested.
Cytological Analyses. Arabidopsis, Drummond's rockcress and cowpea floral buds were fixed in FAA (v/v: 3.7% formaldehyde, 5% acetic acid, 50% ethanol) for 48 h and cleared in 2:1 benzyl benzoate dibutyl phthalate (BBDP) (80): 1) 70% EtOH, 30 min; 95% EtOH, ≥4 h (2×); 95% EtOH:BBDP (2:1), 2 h; 95% EtOH:BBDP (1:2), 4 h; BBDP, 4 h; BBDP, overnight. Cleared pistils were mounted (up to 16 per slide) and measured from the pedicel base to the top of the stigma. Ovule development stages were studied using a BX53 microscope equipped with differential interference contrast optics and a MicroFire 599809 camera (Olympus, Center Valley, Pa., USA). For chromosome staining, pistils were soaked in 95% ethanol that contained 0.1 mg L^−1 4′,6-diamidino-2-phenylindole (DAPI). Callose was stained by soaking DAPI stained pistils in aqueous aniline blue (Millipore Sigma, Darmstadt, Germany) (124). DAPI fluorescence was detected with a Zeiss LSM 510 confocal microscope with excitation at 408 nm, dichroic reflector at HFT488 nm and detection at 450-650 nm. Callose was distinguished from DAPI by detection at 550-650 nm.
Presence of the following ovule characteristics were recorded: MMCs, Antennaria type diplosporous 1-2 nucleate ES, sexual or Taraxacum type diplosporous dyads, sexual tetrads, sexual or Taraxacum type diplosporous 1-2 nucleate ES, AI and AES. Developmental stages for the majority of ovules per pistil were recorded, and pistil lengths for the following stages (125) were recorded: 1-II, ovule meristems protruding from placentae (precedes MMC formation); 2-IV, meiosis; 3-III, vacuole in immature ES beginning to appear; 4-VI, nuclear divisions in endosperm underway. To determine average timing of meiosis onset, pistils primarily containing premeiotic (2-III) ovules were located under low light conditions 1 h before the lights came on in the morning. Corresponding sepals were marked with a small point permanent marker. Pistils were then randomly harvested for analysis when the lights came on and 3 h thereafter.
Pistils were aseptically excised, but not disinfested, at the early pre-MMC to MMC stages and incubated in vitro. The basal culture medium for arabidopsis and Drummond's rockcress was MS (126) (Caisson Laboratories, Inc., Smithfield, UT USA) with 20 g L^−1 sucrose or glucose and solidified with 1.45 g L^−1 Phytogel (MilliporeSigma).

[2] = test system: B. cf. gunnisoniana ovules; conditions: pre-MMC staged pistils demethylated with 5-azaC; cited from earlier work
[3] = test system: cowpea (Vigna unguiculata) ovules; assay: Pistil culture with epiBL, DTBA, epiBL plus DTBA and 5-azaC; type: cell-based; conditions: compound in pretreatment and culture medium; 24 of 34 ovules in total
From the text: as §1, with “These were designed for each of three sexual species, B. stricta, arabidopsis and cowpea. The experiments were performed and ratios of apomeiosis to meiosis were documented.” left out
Cytological Analyses. […] Cleared pistils were mounted (up to 16 per slide) and measured from the pedicel base to the top of the stigma. […] DAPI fluorescence was detected with a Zeiss LSM 510 confocal microscope with excitation at 408 nm, dichroic reflector at HFT488 nm and detection at 450-650 nm. […]
Presence of the following ovule characteristics were recorded: MMCs, Antennaria type diplosporous 1-2 nucleate ES, sexual or Taraxacum type diplosporous dyads, sexual tetrads, sexual or Taraxacum type diplosporous 1-2 nucleate ES, AI and AES. […]

[4] = test system: B. cf. gunnisoniana ovules; assay: 5-azaC pre-culture soak and pistil culture, Taraxacum-type to Antennaria-type diplospory; type: cell-based; conditions: 500 μmol L−1 5-azaC (highest concentration)
Protocol: FIG. 38 Frequencies of triploid B. cf. gunnisoniana ovules that were initiating Taraxacum-type diplospory, Polygonum-type sexual development, Antennaria-type diplospory, or Hieracium-type apospory at the end of pistil culture treatment as affected by a 5 min pre-culture soak in solutions containing 5-azacytidine (5-azaC). Pistils were initiated in culture at the 1-I stage. Numbers of ovules per level of 5-azaC averaged 487 and ranged from 288-590.
FIGS. 39A-39C Ovules from pistils of B. gunnisoniana treated at the pre-MMC stage with 5-azaC as a pretreatment solution and then cultured on 5-azaC-containing tissue culture media for 48 h. (FIGS. 39A, 39B) Antennaria-type (A-type) MMC vacuolation. (FIG. 39C) 2-nucleate A-type embryo sac arising directly from an MMC. scale bar: 20 μm.
Thus, if methylation in sexual plants can be prevented, or if DNA can be demethylated, the apomictic pathway might surface as the default pathway. 5-azaC, an inhibitor of DNA-cytosine methyltransferases, produces upon DNA replication hypomethylated DNA. It is a chemical analogue of cytosine that is incorporated into DNA by competition with cytosine during DNA synthesis. In 5-azaC, the carbon-5 of the cytosine ring, which is essential to DNA methyltransferase function, is replaced by nitrogen, and this causes failure of methylation at each 5-azaC site(99). […]

[5] = test system: B. cf. gunnisoniana ovules; assay: Pistil culture with BR biosynthesis inhibitor BRZ, H2O2, or both; type: cell-based; conditions: for shift from apomeiosis (dyad formation) to meiosis (tetrad formation) vs controls: BRZ alone (1.0 μmol), H2O2 alone (500 μmol), or combined
Protocol: Pistils were cultured at the 2-IV stage.
Pistils were cultured at the […].
By a mechanism not yet elucidated (25), TOR stimulates the production of brassinosteroids (BR), which are plant steroids that regulate growth, including many growth and development functions of ovules (25). By dephosphorylation, BR activates BRASSINAZOLE-RESISTANT 1 (BZR1), which is a major BR-regulated transcription factor that targets ca. 2000 genes. Thus, to determine if BR functions downstream of TOR in the apomeiosis meiosis switch, we treated sets of B. cf. gunnisoniana pistils with the BR biosynthesis inhibitor brassinozole (BRZ). Pistils were collected during the 2-III and 2-IV stages.
To determine if apomixis to sex switching by H2O2 involves pathways independent of BR, we compared three treatments to controls, BRZ alone (1.0 μmol), H2O2 alone (500 μmol), and BRZ and H2O2 combined (FIG. 37).

[6] = test system: Arabidopsis embryo sacs; assay: Induction of parthenogenesis and autonomous endosperm formation in pistils; type: cell-based; conditions: 0.1 μM DTBA on 2% glucose medium for 7 d
Protocol: Scale bars: 50 μm (FIG. 51A), 20 μm (FIGS. 51B-51E).
FIG. 52 Parthenogenesis in putatively diploid Arabidopsis embryo sacs induced by treatment of pistils in emasculated flowers with 2 μM BR or 50 mM glucose. To prevent fertilization, stigmas of pistils were clipped while anthers were immature. These pistils were also treated premeiotically with BR and glucose.
Functional apomixis requires not only apomeiosis but also parthenogenesis and, in plants, endosperm formation.

[7] = test system: B. stricta (Drummond's rockcress) ovules; assay: Pistil culture factorial experiment with sucrose, glucose, epiBL, DTBA and 5-azaC; type: cell-based, Boechera stricta
From the text: as §1
Both the carbohydrate variable and the other components variable were highly significant (P<0.001). Additionally, three ovules from the sucrose plus epiBL treatment (epiBL in the pretreatment and in the medium) had formed aposporous embryo sacs (AES). Also, two ovules, one from the sucrose-epiBL-epiBL treatment and one from the glucose-DTBA-DTBA treatment, had formed Antennaria-type diplosporous embryo sacs (FIGS. 48A-48H).
Cytological Analyses. Arabidopsis, Drummond's rockcress and cowpea floral buds were fixed in FAA (v/v: 3.7% formaldehyde, 5% acetic acid, 50% ethanol) for 48 h and cleared in 2:1 benzyl benzoate dibutyl phthalate (BBDP) (80): 1) 70% EtOH, 30 min; 95% EtOH, ≥4 h (2×); 95% EtOH:BBDP (2:1), 2 h; 95% EtOH:BBDP (1:2), 4 h; BBDP, 4 h; BBDP, overnight. Cleared pistils were mounted (up to 16 per slide) and measured from the pedicel base to the top of the stigma. […] DAPI fluorescence was detected with a Zeiss LSM 510 confocal microscope with excitation at 408 nm, dichroic reflector at HFT488 nm and detection at 450-650 nm. […]
Presence of the following ovule characteristics were recorded: MMCs, Antennaria type diplosporous 1-2 nucleate ES, sexual or Taraxacum type diplosporous dyads, sexual tetrads, sexual or Taraxacum type diplosporous 1-2 nucleate ES, AI and AES. Developmental stages for the majority of ovules per pistil were recorded, and pistil lengths for the following stages (125) were recorded: 1-II, ovule meristems protruding from placentae (precedes MMC formation); 2-IV, meiosis; 3-III, vacuole in immature ES beginning to appear; 4-VI, nuclear divisions in endosperm underway. […]

[8] = test system: B. retrofracta×stricta ovules; conditions: 50 and/or 100 mmol L−1 H2O2, 5 min pretreatment of pistils
From the text: (§2) Ovules were scored based on germline development. The following conditions were quantified: i) pre-meiotic megaspore mother cell (MMC), ii) meiotic or diplosporous dyad, iii) sexual tetrad of megaspores, iv) enlarged functional megaspore (FM) with three degenerating megaspores (sexually derived), v) early-stage 1 or 2-nucleate embryo sac with three degenerating megaspore remnants visible, vi) enlarged functional megaspore (FM) with only one degenerating megaspore (derived by Taraxacum-type diplospory), vii) early-stage 1 or 2-nucleate embryo sac with only one degenerating megaspore remnant (derived by Taraxacum-type diplospory), viii) early-stage 1 or 2-nucleate embryo sac with no degenerating megaspores present (derived by Antennaria-type diplospory), ix) presence of one or more enlarged non-vacuolate nucellar cells (aposporous initial, AI) that equal or surpass the size of the meiocyte (meiotically active MMC, dyad or early-stage tetrad), x) enlarged nucellar cell with one or more distinct vacuoles and 1-2 nuclei (early-stage aposporous embryo sac, AES). Because of increased uncertainties, the origins of embryo sacs (sexual, diplosporous or aposporous) were not reported beyond the 2-nucleate stage. Pistil length and the developmental stage of the majority of scorable ovules in the pistil were recorded for each pistil.
(§3) To study the effects of short-term drought on converting apomictic development to sexual development, pistils of apomictic B. retrofracta×stricta, B. cf. gunnisoniana and B. lignifera were excised and cultured at pre-apomeiotic stages of ovule development.
(§4) TARGET OF RAPAMYCIN (TOR) is a major regulator of cell energetics that is highly-conserved among eukaryotes. This serine/threonine protein kinase activates or inactivates enzymes by its serine-threonine phosphorylation function(18). As a regulator of bioenergetics, TOR is inactivated by ROS, and its inactivation suppresses growth.

[9] = test system: B. lignifera ovules; conditions: 50 and/or 100 mmol L−1 H2O2, 5 min pretreatment of pistils
From the text: as §2, §3, §4

[10] = test system: B. cf. gunnisoniana ovules
From the text: as §2, §3, §4

[11] = test system: apomictic Boechera pistils; conditions: H2O2 applications shortly before apomeiosis; cited from earlier work
[12] = early MMC staged pistils soaked in DTBA 60 min, cultured on DTBA medium 4 d
[13] = 7 min pretreatment in dilute H2O2

Nc1ncn([C@@H]2O[C@H](CO)[C@@H](O)[C@H]2O)c(=O)n1 [5-azaC, 5-azacytidine]
Antennaria type diplospory ([1]; 5-azaC soak, then 5-azaC or BR medium (5/5, 5/B)): occurred in some ovules
ovules with meiosis replaced by Antennaria-type diplosporous embryo sac formation ([1]; first factorial experiment, 5-azaC in pretreatment and tissue culture media): 6%
onset of aposporous embryo sac formation ([1]; first factorial experiment, 5-azaC in pretreatment only or pretreatment and medium): effectively induced onset of aposporous embryo sac formation from nucellar cells
treated ovules that developed apomeiotically ([1]; pre-MMC pistils soaked in 5-azaC 60 min, cultured on control medium or media with 5-azaC, BR, or 5-azaC plus BR and DTBA): Greater than 90%
ovules with Antennaria-type diplospory ([1]; second factorial experiment, 5-azaC as pretreatment and in culture medium): 26%
ovules that initiated apomixis (AES, Taraxacum-type and Antennaria-type diplospory) ([1]; second factorial experiment, 5-azaC-treated): 90%
ovules switched from Taraxacum-type to Antennaria-type diplospory [2]: 10%
number of ovules that initiated Antennaria-type diplospory [3]: Nine
ovules with induced Antennaria-type diplospory [4]: 10%

CC(O)(c1ccccc1)C(Cc1ccc(Cl)cc1)n1cncn1 (stereo not shown) [BRZ, brassinazole]
shift from apomeiosis (dyad formation) to meiosis (tetrad formation) vs controls [5]: highly significant (p<0.001) shift from apomeiosis (dyad formation) to meiosis (tetrad formation)
shift of reproductive mode by BR synthesis inhibition ([5]; pistils cultured at the 2-IV stage): significant shift (P<0.05) from apomeiosis to meiosis and from apoptosis to apospory

Cl.N[C@H](CS)CCS [DTBA, (S)-2-aminobutane-1,4-dithiol hydrochloride]
parthenogenetic embryo formation [6]: Parthenogenetic embryos
ovules with 1st division meiotic restitution (Taraxacum-type diplosporous apomeiosis) [1, 12]: 40%
ovules with megaspores displaced by one or more AES [1, 12]: 18%
number of ovules that formed Antennaria-type diplosporous embryo sacs ([7]; glucose-DTBA-DTBA treatment): one
number of ovules that initiated Antennaria-type diplospory [3]: 8 ovules

OO [H2O2, hydrogen peroxide]
Taraxacum-type diplosporous ES formation [1, 13]: absent
ovules with surviving megaspores replaced by AES [1, 13]: 13%
switch from apomeiosis to meiosis [8]: effectively switched apomeiosis to meiosis
switch from apomeiosis to meiosis [9]: effectively switched apomeiosis to meiosis
switch from apomeiosis to meiosis ([10]; 50 and/or 100 mmol L−1 H2O2, 5 min pretreatment of pistils): effectively switched apomeiosis to meiosis
replacement of surviving megaspores of tetrads by aposporous embryo sacs (apospory), ovules ([10]; H2O2 treatments): 30%
shift from apomeiosis (dyad formation) to meiosis (tetrad formation) vs controls [5]: highly significant (p<0.001) shift from apomeiosis (dyad formation) to meiosis (tetrad formation)
shift from apomeiosis to meiosis [11]: high frequency shifts from Taraxacum-type diplosporous apomeiosis to normal meiosis

OC[C@H]1O[C@@](CO)(O[C@H]2O[C@H](CO)[C@@H](O)[C@H](O)[C@H]2O)[C@@H](O)[C@@H]1O [sucrose]
meiosis termination followed by Taraxacum and Hieracium type ES formation ([7]; glucose instead of sucrose in medium): 26 of 164

— patent publication US11820994B2, “Methods of inducing apomictic or sexual reproduction” (priority 2018, dated 2023)
